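Grown in 96-well plates, cells were treated for 48 hours with each compound at five concentrations. Insufficient inhibition: endpoint recorded as highest concentration tested. TGI is the concentration that stops growth completely.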
Test system: SN12K1 renal
Assay: NCI tumour cell line growth inhibition, 48 h

## CC[C@](C)(O)C(=O)O[C@H]1C(=O)O[C@@H]2C[C@H]3C(C)=CC(=O)[C@@H](O)[C@]3(C)[C@H]3[C@@]4(O)OC[C@]32[C@@H]1[C@@H](C)[C@H]4O
  TGI: 59.8 nM

Source: PubChem BioAssay (NCI)
